# Values quoted from earlier work as cited in patent US11147777B1, “Methods and formulations for efficacious pain relief by transdermal delivery of cannabidiol” (CHARLOTTE'S WEB, INC., priority 2017, dated 2021).
# Biological target: T1, mTRPM8 (Mus musculus, UniProt Q8R4D5)
# T1 construct: expressed in transfected cells; host or cells: HEK293
# Details: normalized to the efficacy of icilin, as disclosed by Behrendt et al.
# T1 sequence (Q8R4D5 whole entry): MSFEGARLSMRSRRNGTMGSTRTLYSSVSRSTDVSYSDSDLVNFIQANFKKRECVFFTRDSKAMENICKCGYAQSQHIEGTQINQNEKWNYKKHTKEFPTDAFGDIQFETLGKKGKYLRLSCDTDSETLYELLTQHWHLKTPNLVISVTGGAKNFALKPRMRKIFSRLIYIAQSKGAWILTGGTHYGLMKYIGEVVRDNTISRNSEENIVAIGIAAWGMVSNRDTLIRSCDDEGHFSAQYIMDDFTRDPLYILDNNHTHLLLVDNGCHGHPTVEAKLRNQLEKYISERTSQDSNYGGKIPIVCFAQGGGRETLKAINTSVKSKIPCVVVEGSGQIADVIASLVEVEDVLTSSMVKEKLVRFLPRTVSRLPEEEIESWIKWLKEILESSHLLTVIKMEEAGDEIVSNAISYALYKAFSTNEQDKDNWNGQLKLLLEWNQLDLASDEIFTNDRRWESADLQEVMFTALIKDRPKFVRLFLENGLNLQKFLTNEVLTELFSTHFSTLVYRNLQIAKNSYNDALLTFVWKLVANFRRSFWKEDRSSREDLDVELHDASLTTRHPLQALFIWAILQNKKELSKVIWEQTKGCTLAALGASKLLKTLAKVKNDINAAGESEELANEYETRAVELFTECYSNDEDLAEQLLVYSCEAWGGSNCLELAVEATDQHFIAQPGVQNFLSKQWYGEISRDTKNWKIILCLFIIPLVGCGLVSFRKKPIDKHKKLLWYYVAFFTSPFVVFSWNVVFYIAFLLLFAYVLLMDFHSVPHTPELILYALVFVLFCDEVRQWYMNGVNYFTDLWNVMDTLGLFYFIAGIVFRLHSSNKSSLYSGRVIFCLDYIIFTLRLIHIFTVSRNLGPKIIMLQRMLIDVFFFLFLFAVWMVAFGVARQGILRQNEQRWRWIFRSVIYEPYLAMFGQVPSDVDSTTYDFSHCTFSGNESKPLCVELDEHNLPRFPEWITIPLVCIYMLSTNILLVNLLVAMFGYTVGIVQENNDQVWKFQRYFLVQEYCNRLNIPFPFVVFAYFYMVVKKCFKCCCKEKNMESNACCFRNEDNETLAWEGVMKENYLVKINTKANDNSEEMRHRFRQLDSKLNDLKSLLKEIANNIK
compound,measurement,value
CC1CCC(C(C)C)C(O)C1 (stereo not shown) [menthol],relative efficacy as TRPM8 agonist on icilin-normalized scale (100 menthol = 70 icilin),70
